Earlier results on 2 molecules are cited in publication PMC5096457 (Cell chemical biology, 2016).

Molecules are shown by their SMILES.

Series [1] has as its system NIH 3T3 Src−/− cells overexpressing Src (Y529F). To be noted: high micromolar concentrations; ref Georghiou et al., 2012.
Another series concerns c-Kit. To be noted: ref DiNitto et al., 2010.

On to `NC(=O)[C@@H]1CCCNC(=O)[C@H](Cc2ccc([N+](=O)[O-])cc2)NC(=O)[C@H](Cc2ccc(F)cc2)NC(=O)[C@H](CC2CCCCC2)NC(=O)/C=C/C(=O)N1` [MC25a], for which the global tyrosine phosphorylation entry in series [1] is “decreased global tyrosine phosphorylation”.

As for `CCN(CC)CCNC(=O)c1c(C)[nH]c(/C=C2\C(=O)Nc3ccc(F)cc32)c1C` [sunitinib], in the series with c-Kit, the “fold increase in IC50 against activated kinase target” value was 300 fold.
